Measurements reported in US20030119775A1, “Respiration uncoupling protein” (DUKE UNIVERSITY, priority 1997, published 2003).

Columns and labels:
[1] = test system: UCP2 expression in Rat Basophilic Leukemia cell (RBL); experiment: Northern blot of UCP2 expression in RBL cells; format: cell-based; set-up: dose or concentration left out as unconfirmed
Text: (A) A tumor mast cell line, the Rat Basophilic Leukemia cell (RBL), is a model system for studies of immune system signal transduction. In the RBL cell, binding of an antigen to the IgE receptor on the cell surface results in the activation of phospholipase C-gamma (PLCg). This event leads to the activation of protein kinase C (PKC) and an increase in intracellular calcium which are required for degranulation and gene expression in RBL cells. Several drugs can mimic the intracellular events and degranulation occuring in this cell type in response to antigen activation of the IgE receptor. The inophore Ionomycin causes the release of calcium from intracellular calcium stores and the phorbol ester PMA is able to directly activate PKC. Both of these drugs are required to achieve maximal activation of RBL cells. In order to determine the expression level of UCP2 in RBL cells, these cells were treated with Ionomycin ([…]), PMA ([…]) or both drugs.

[2] = test system: mitochondrial potential of transformed yeast; experiment: Flow cytometry of mitochondrial membrane potential with DiOC6(3) in transformed yeast; format: cell-based, Saccharomyces cerevisiae
Text: FIG. 2. Flow cytometry analysis of membrane potential following the expression of UCP2 in S. cerevisiae; comparison of wild-type UCP1 and non-active UCP1 mutants. The number of cells (counts, Y-axis) is represented on a logarithmic scale of 1024 channels. The X-axis is a logarithmic scale of fluorescence intensity. A shift of the curve towards the left indicates a decreased mitochondrial potential. The horizontal bar on the left indicates the position of cells treated with mCICCP, a chemical uncoupler. The expression of UCP2, UCP1 or UCPmut mRNA in recombinant yeast, as well as its absence in wild type yeast, was checked by Northern blots.
(§1) Yeast transfections and functional analysis using flow cytometry. The diploid yeast (Saccharomyces cerevisiae) strain W303 (a/α; ade2-10; his 3-11-15; leu2-2, 112; ura3-1; can1-100; try-Δ1) was used for expression of UCP2. The pYedP-UCP2 or UCPmut expression vectors were introduced into yeast by electroporation and transformants were selected for uracil […] as described by Bouillaud et al (EMBO J. 13:1990 (1994)). Expression of the UCP2, UCP1 or UCPmut under the control of the gal-cyc promoter was induced by galactose in the absence of glucose. Growth of yeast for flow cytometry analysis and measurement of mitochondrial membrane potential using the DiOC6(3) fluorescent probe (3,3′-dihexyloxacarbocyanine iodine, Molecular Probes, Eugene, Oreg.) are described by Bouillaud et al (EMBO J. 13:1990 (1994)).
The in vivo decrease of membrane potential associated with uncoupling of respiration was analyzed by flow cytometry of yeast labeled with the potential sensitive probe DiOC6(3) . […] In the case of UCP2, 2 peaks were observed, one equivalent to cells expressing UCP1 and a second peak corresponding to a very low mitochondrial potential. Mean fluorescence intensities were: empty vector, 65.5; UCPmut, 43.0; UCP1, 22.5; UCP2, 15.5 and UCP2+mCICCP, 0.4 (FIG. 2). Very similar results were obtained in two additional experiments.

UCP2 mRNA = UCP2 mRNA levels in mouse tissues after treatment; format: in vivo, Swiss mice
Text: Regulation of UCP2 has been examined for factors that would regulate UCP1. In 11-week-old fed male Swiss mice, UCP2 mRNA was detected in BAT, WAT, thigh muscle and liver. […] Thus, UCP2 is regulated very differently than UCP1, which is induced by cold and β3 agonists.

[3] = test system: UCP2 mRNA in macrophage RAW cells; experiment: UCP2 mRNA in cultured macrophage RAW cells, northern normalized for actin; format: cell-based, mouse; conditions: macrophages treated with LPS
Text: (B) Bacterial lipopolysaccharide (LPS) regulates UCP2 mRNA in macrophages. Bacterial LPS is known to induce many of the features of infection, including fever. Thioglycolate elicited mouse macrophage (peritoneal exudate cells, PEC) have been studied for regulation of UCP2 mRNA by LPS. […] A study has also be made of UCP2 expression in cultured mouse macrophage RAW cells. These cells express UCP2. […] The LPS mediated decrease of UCP2 is not affected by indomethacin or by PGE2. All fo the macrophage northerns are normalized for actin expression and have been repeated at least once. […] The results are consistent with a role of UCP2 in immune function.

[4] = Roe et al, Metabolism 46:359 (1997); cited from earlier work
[5] = test system: mitochondria isolated from yeast; experiment: Respiratory rates in mitochondria isolated from yeast; format: biochemical
Text: Respiratory rates have been measured in mitochondria isolated from yeast containing the empty pYeDP vector and the pUCP2 vector (Table 1). […] Addition of ADP stimulates respiration more in control mitochondria, again showing the UCP2 mitochondria are more uncoupled.

[6] = test system: yeast (Saccharomyces cerevisiae) strain W303; experiment: Growth rate (instantaneous generation time) of transformed yeast after galactose induction; format: cell-based; conditions: liquid medium, galactose-induced expression; ±SD
Text: as §1
To test the hypothesis that UCP2 is an uncoupling protein, yeast were transfected with UCP2 in an expression vector as previously reported for UCP1 (Bouillaud et al, EMBO J. 13:1990 (1994)). Rates of growth in liquid medium of transformed yeast were measured in the presence of galactose, which induces expression. Instantaneous generation times were compared after induction of vector, UCP2, control (empty) and UCP1 expression vectors. […]

[7] = yeast carrying the expression vector, lower = decreased mitochondrial potential

C[C@H](CCC(=O)O)C[C@H](C)C[C@H](C)C(=O)/C=C(\O)[C@H](C)C[C@H](C)C/C=C/[C@@H](C)[C@@H](O)[C@@H](C)[C@@H](O)C[C@@H]1CC[C@@](C)([C@H]2CC[C@@](C)([C@@H](C)O)O2)O1 [Ionomycin]
Induction of UCP2 expression versus untreated control cells [1]: ~4 fold

N#CC(C#N)=NNc1cccc(Cl)c1 [mCICCP]
Mean fluorescence intensity (DiOC6(3)) ([2]; UCP2-expressing yeast treated with mCICCP): 0.4

leptin: leptin, shown to increase sympathetic outflow to brown fat
Effect on UCP2 expression (UCP2 mRNA; 2 μg, 2×/day for 4 days): failed to increased UCP2 expression | Influence on UCP2 expression (UCP2 mRNA; general statement: in vitro or in vivo): not to influence UCP2 expression

CCCCC[C@H](O)/C=C/[C@H]1[C@H](O)CC(=O)[C@@H]1C/C=C\CCCC(=O)O [PGE2]
Effect on the LPS mediated decrease of UCP2 [3]: not affected

COc1ccc2c(c1)c(CC(=O)O)c(C)n2C(=O)c1ccc(Cl)cc1 [indomethacin]
Effect on increased O2 consumption associated with cachexia of malignancy [4]: attenuated | Effect on the LPS mediated decrease of UCP2 [3]: not affected

N#CC(C#N)=NNc1ccc(OC(F)(F)F)cc1 [FCCP]
Respiratory rate increase factor upon addition of uncoupler ([5]; control (pYeDP) mitochondria): 7.1 | Respiratory rate increase factor upon addition of uncoupler ([5]; pUCP2 mitochondria): 4.3

CCCCCCCCCCCCCC(=O)O[C@@H]1[C@@H](C)[C@@]2(O)[C@@H](C=C(CO)C[C@]3(O)C(=O)C(C)=C[C@@H]23)[C@@H]2C(C)(C)[C@]12OC(C)=O [PMA]
Induction of UCP2 expression versus untreated control cells [1]: ~4 fold

C[C@H](Cc1ccc2c(c1)OC(C(=O)[O-])(C(=O)[O-])O2)NC[C@H](O)c1cccc(Cl)c1.[Na+].[Na+] [CL316,243]
Effect on UCP2 mRNA levels (UCP2 mRNA; 11-week-old fed male Swiss mice, BAT, WAT, thigh muscle and liver, treatment for 10 days): did not influence UCP2 mRNA levels

B1: UCP1: uncoupling protein-1 of brown adipose tissue, expressed in yeast for comparison (protein, UniProt P25874 1-307, looked up)
Mitochondrial brown fat …: MGGLTASDVHPTLGVQLFSAGIAACLADVITFPLDTAKVRLQVQGECPTSSVIRYKGVLGTITAVVKTEGRMKLYSGLPAGLQRQISSASLRIGLYDTVQEFLTAGKETAPSLGSKILAGLTTGGVAVFIGQPTEVVKVRLQAQSHLHGIKPRYTGTYNAYRIIATTEGLTGLWKGTTPNLMRSVIINCTELVTYDLMKEAFVKNNILADDVPCHLVSALIAGFCATAMSSPVDVVKTRFINSPPGQYKSVPNCAMKVFTNEGPTAFFKGLVPSFLRLGSWNVIMFVCFEQLKRELSKSRQTMDCAT
Mean fluorescence intensity (DiOC6(3)) [2, 7]: 22.5 | Instantaneous generation time [6]: 226 ± 10 min

B2: UCP2: uncoupling protein-2, expressed in yeast from the pYedP-UCP2 expression vector (protein, UniProt P55851 1-309, looked up)
Dicarboxylate carrier SLC25A8: MVGFKATDVPPTATVKFLGAGTAACIADLITFPLDTAKVRLQIQGESQGPVRATASAQYRGVMGTILTMVRTEGPRSLYNGLVAGLQRQMSFASVRIGLYDSVKQFYTKGSEHASIGSRLLAGSTTGALAVAVAQPTDVVKVRFQAQARAGGGRRYQSTVNAYKTIAREEGFRGLWKGTSPNVARNAIVNCAELVTYDLIKDALLKANLMTDDLPCHFTSAFGAGFCTTVIASPVDVVKTRYMNSALGQYSSAGHCALTMLQKEGPRAFYKGFMPSFLRLGSWNVVMFVTYEQLKRALMAACTSREAPF
Mean fluorescence intensity (DiOC6(3)) [2, 7]: 15.5 | Instantaneous generation time [6]: 260 ± 29 min
